Experimental data as given in ChEMBL document CHEMBL3046814, “Induction effects of host plants on insecticide susceptibility and detoxification enzymes of Bemisia tabaci (Hemiptera: Aleyrodidae)” (2011).
Converted amounts (≈) assume the structure as drawn.

Experiments:
Format in all cases: functional
Bemisia tabaci [1] = experiment: Insecticidal activity against Bemisia tabaci (sweet potato whitefly) infested poinsettia leaves assessed as mortality after 48 hr by leaf dip method; conditions: foliar
Bemisia tabaci [2] = experiment: Insecticidal activity against Bemisia tabaci (sweet potato whitefly) infested cotton leaves assessed as mortality after 48 hr by leaf dip method; conditions: foliar
Bemisia tabaci [3] = experiment: Insecticidal activity against Bemisia tabaci (sweet potato whitefly) infested cabbage leaves assessed as mortality after 48 hr by leaf dip method; conditions: foliar
Bemisia tabaci [4] = experiment: Insecticidal activity against Bemisia tabaci (sweet potato whitefly) infested cucumber leaves assessed as mortality after 48 hr by leaf dip method; conditions: foliar
Bemisia tabaci [5] = experiment: Insecticidal activity against Bemisia tabaci (sweet potato whitefly) infested tomato leaves assessed as mortality after 48 hr by leaf dip method; conditions: foliar
Bemisia tabaci [6] = experiment: Resistance ratio of LC50 for Bemisia tabaci (sweet potato whitefly) infested poinsettia leaves to LC50 for Bemisia tabaci (sweet potato whitefly) infested tomato leaves
Bemisia tabaci [7] = experiment: Resistance ratio of LC50 for Bemisia tabaci (sweet potato whitefly) infested poinsettia leaves to LC50 for Bemisia tabaci (sweet potato whitefly) infested cucumber leaves
Bemisia tabaci [8] = experiment: Resistance ratio of LC50 for Bemisia tabaci (sweet potato whitefly) infested poinsettia leaves to LC50 for Bemisia tabaci (sweet potato whitefly) infested cabbage leaves
Bemisia tabaci [9] = experiment: Resistance ratio of LC50 for Bemisia tabaci (sweet potato whitefly) infested squash leaves to LC50 for Bemisia tabaci (sweet potato whitefly) infested cotton leaves
Bemisia tabaci [10] = experiment: Resistance ratio of LC50 for Bemisia tabaci (sweet potato whitefly) infested squash leaves to LC50 for Bemisia tabaci (sweet potato whitefly) infested cabbage leaves

CC[C@H](C)[C@H]1O[C@]2(C=C[C@@H]1C)C[C@@H]1C[C@@H](C/C=C(\C)[C@@H](O[C@H]3C[C@H](OC)[C@@H](O[C@H]4C[C@H](OC)[C@@H](O)[C@H](C)O4)[C@H](C)O3)[C@@H](C)/C=C/C=C3\CO[C@@H]4[C@H](O)C(C)=C[C@@H](C(=O)O1)[C@]34O)O2.CO[C@H]1C[C@H](O[C@H]2[C@H](C)O[C@@H](O[C@@H]3/C(C)=C/C[C@@H]4C[C@@H](C[C@]5(C=C[C@H](C)[C@@H](C(C)C)O5)O4)OC(=O)[C@@H]4C=C(C)[C@@H](O)[C@H]5OC/C(=C\C=C\[C@@H]3C)[C@]54O)C[C@@H]2OC)O[C@@H](C)[C@@H]1O [ABAMECTIN]
LC50 (Bemisia tabaci [1]): 0.74 µg/mL
LC50 (Bemisia tabaci [2]): 0.7 µg/mL
LC50 (Bemisia tabaci [3]): 0.3 µg/mL
LC50 (Bemisia tabaci [4]): 0.5 µg/mL
LC50 (Bemisia tabaci [5]): 0.4 µg/mL

C/C(=N\C#N)N(C)Cc1ccc(Cl)nc1 [ACETAMIPRID]
RatioLC50 (Bemisia tabaci [6]): 14.8
LC50 (Bemisia tabaci [1]): 129 µg/mL (≈ 579 µM)
LC50 (Bemisia tabaci [2]): 66.4 µg/mL (≈ 298 µM)
RatioLC50 (Bemisia tabaci [7]): 10.34
LC50 (Bemisia tabaci [3]): 17.7 µg/mL (≈ 79.5 µM)
LC50 (Bemisia tabaci [4]): 12.4 µg/mL (≈ 55.7 µM)
LC50 (Bemisia tabaci [5]): 8.73 µg/mL (≈ 39.2 µM)

Cc1c(COC(=O)[C@@H]2[C@H](/C=C(\Cl)C(F)(F)F)C2(C)C)cccc1-c1ccccc1 [BIFENTHRIN]
RatioLC50 (Bemisia tabaci [6]): 4.02
LC50 (Bemisia tabaci [1]): 278 µg/mL (≈ 657 µM)
RatioLC50 (Bemisia tabaci [8]): 3.19
LC50 (Bemisia tabaci [2]): 228 µg/mL (≈ 539 µM)
LC50 (Bemisia tabaci [3]): 145 µg/mL (≈ 343 µM)
RatioLC50 (Bemisia tabaci [9]): 7.5
LC50 (Bemisia tabaci [4]): 462 µg/mL (≈ 1090 µM)
LC50 (Bemisia tabaci [5]): 115 µg/mL (≈ 272 µM)
RatioLC50 (Bemisia tabaci [10]): 7.5

CCCCN(CCCC)SN(C)C(=O)Oc1cccc2c1OC(C)(C)C2 [CARBOSULFAN]
RatioLC50 (Bemisia tabaci [6]): 6.36
LC50 (Bemisia tabaci [1]): 3730 µg/mL (≈ 9790 µM)
RatioLC50 (Bemisia tabaci [8]): 5.36
LC50 (Bemisia tabaci [2]): 2880 µg/mL (≈ 7560 µM)
LC50 (Bemisia tabaci [3]): 696 µg/mL (≈ 1830 µM)
LC50 (Bemisia tabaci [4]): 3090 µg/mL (≈ 8110 µM)
LC50 (Bemisia tabaci [5]): 586 µg/mL (≈ 1540 µM)

CCOP(=S)(OCC)Oc1nc(Cl)c(Cl)cc1Cl [CHLORPYRIFOS]
RatioLC50 (Bemisia tabaci [6]): 3.65
LC50 (Bemisia tabaci [1]): 2120 µg/mL (≈ 6040 µM)
LC50 (Bemisia tabaci [2]): 1410 µg/mL (≈ 4030 µM)
LC50 (Bemisia tabaci [3]): 722 µg/mL (≈ 2060 µM)
LC50 (Bemisia tabaci [4]): 924 µg/mL (≈ 2640 µM)
LC50 (Bemisia tabaci [5]): 581 µg/mL (≈ 1660 µM)

N#Cc1nn(-c2c(Cl)cc(C(F)(F)F)cc2Cl)c(N)c1[S+]([O-])C(F)(F)F (centres undefined) [FIPRONIL]
LC50 (Bemisia tabaci [1]): 9.13 µg/mL (≈ 20.9 µM)
LC50 (Bemisia tabaci [2]): 3.51 µg/mL (≈ 8.03 µM)
LC50 (Bemisia tabaci [3]): 3.82 µg/mL (≈ 8.74 µM)
LC50 (Bemisia tabaci [4]): 8.79 µg/mL (≈ 20.1 µM)
LC50 (Bemisia tabaci [5]): 5.96 µg/mL (≈ 13.6 µM)
